# Assay results as given in patent US20250268900A1, “COMBINATION THERAPY USING A SUBSTITUTED PYRIMIDIN-4(3H)-ONE AND NIVOLUMAB AS WELL AS ITS USE IN THE TREATMENT OF CANCER” (BRISTOL-MYERS SQUIBB COMPANY, priority 2022, published 2025).
# Tests used:
# CT-26 KRAS D12C KI tumor = settings: CT-26 KRAS D12C KI bearing Balb/c mice, n = 10
# Description: Animal Receipt and Housing. For the CT-26 CRISPR knock-in KRAS D12C study, protocols and procedures involving the care and use of animals were reviewed and approved by the Charles River Accelerator and Development Lab (CRADL) Institutional Animal Care and Use Committee (IACUC) prior to execution. The animal care and use program has been fully accredited by the Association for Assessment and Accreditation of Laboratory Animal Care International (AAALAC). Balb/c female mice (Envigo; Inotiv Inc.) were ordered, aged six to eight weeks at receipt, and identified by ear notch. Animals were acclimated for a period of eleven days prior to tumor inoculation. For the duration of the acclimation period and throughout the study, mice were group-housed up to five animals per cage in disposable polycarbonate IVC cages (Innovive; San Diego, CA) which consisted of a layer of Alpha-Dri bedding (Sheppard Specialty Papers, Inc., Kalamazoo, MI), a certified enrichment block and diamond-twist, and a certified polycarbonate housing device. Mice were presented with rodent diet pellet and irradiated reverse-osmosis Aquavive® drinking water (Innovive; San Diego, CA), ad libitum. The vivarium temperature was maintained between 20° C. through 26° C. and an environmental humidity between 30% through 70%. The interior room lighting was cycled twelve hours on and twelve hours off.
# Tumor Cell Line Culture and Inoculation. […] Cells were screened and confirmed negative for mouse pathogens (IDEXX) and maintained in-vitro at 37° C., 5% CO2 atmosphere in 10% (v/v) fetal bovine serum (FBS, Invitrogen) and 90% (v/v) Roswell Park Memorial Institute (RPMI) 1640 Medium (Gibco) on T150 flasks. For implantation, cells were harvested with 0.25% Trypsin-EDTA (Gibco), washed in DPBS (Gibco), counted and viability determined with trypan blue exclusion using Vi-Cell XR (Beckman Coulter), then brought up in a 1:1 ratio of DPBS:Matrigel to a final concentration of 3×10^6 cells/mL. […]
# IFNγ = IFNγ concentration in PBMC supernatants 5 days post CEFT stimulation, TR-FRET; assay type: cell-based; settings: 5 days after CEFT stimulation; data not shown
# Method: (§1) A study was performed to evaluate the effect of the SHP2 inhibitor Compound (10b) alone and in combination with αPD-L1 on T cell cytokine production and killing potential in response to antigenic stimulation. PBMCs from four healthy donors were stimulated with a CEFT peptide pool and treated with vehicle, isotype control, αPD-L1, a titration of Compound (10b), or a titration of Compound (10b) with the addition of either isotype control or αPD-L1. After the initial CEFT stimulation, the cultures were rested and cytokines were added to expand the number of responding CD8+ T cells. Cells were then restimulated with the CEFT peptide pool for 24 hours, and the frequency of CD107a+ cells as a percentage of total CD8+ T cells was assessed by flow cytometry. In addition, at 5 days post stimulation, the supernatents were harvested and the concentration of IFNγ was measured by TR-FRET. FIG. 1A-FIG. 1B show results from this study.
# CD8+ T cells = test: CD8+ activation in PBMCs: CD107a+ cells as a percentage of total CD8+ T cells after CEFT peptide pool stimulation, flow cytometry; assay type: cell-based; settings: PBMCs restimulated with CEFT peptide pool 24 hours, titration of Compound (10b) alone or with αPD-L1
# Method: as §1
smiles,measurement,setting,value
"Cc1c(N2CCC3(CC2)CO[C@@H](C)[C@H]3N)nc(C)n(-c2cccc(Cl)c2Cl)c1=O (atropisomer, axis not shown; (Ra)) [Compound (10b), 6-((3S,4S)-4-amino-3-methyl-2-oxa-8-azaspiro[4.5]decan-8-yl)-3-(Ra)-(2,3-dichlorophenyl)-2,5-dimethyl-4(3H)-pyrimidinone]",Median Progression-Free to Tumor Burden Endpoint,"CT-26 KRAS D12C KI tumor; Formula (10b) 100 mg/kg PO QD×35, ANTIBODY A 10 mg/kg IP Q4D×4, endpoint tumor volume >1,500 mm^3",19 Study Day
same,Hazard Ratio Treatment/ANTIBODY A (Group 2),"CT-26 KRAS D12C KI tumor; Mantel-Haenszel hazard ratio vs ANTIBODY A alone, progression-free to tumor burden endpoint (tumor volume >1,500 mm^3)",1.230
same,Hazard Ratio Treatment/Control (Group 1),"CT-26 KRAS D12C KI tumor; Mantel-Haenszel hazard ratio vs Vehicle Control + MOPC-21 Isotype, progression-free to tumor burden endpoint (tumor volume >1,500 mm^3)",0.261
same,IFNγ levels,IFNγ,inconsistent across donors
same,CD107a+CD8+ T cells (frequency of CD107a+ cells as a percentage of total CD8+ T cells),CD8+ T cells; donor 1,clear Compound (10b) dose-dependent effect
same,CD107a+CD8+ T cells (frequency of CD107a+ cells as a percentage of total CD8+ T cells),CD8+ T cells; donor 2,dose dependent decrease
same,CD107a+CD8+ T cells (frequency of CD107a+ cells as a percentage of total CD8+ T cells),CD8+ T cells; donor 3,some Compound (10b) effect
same,CD107a+CD8+ T cells (frequency of CD107a+ cells as a percentage of total CD8+ T cells),CD8+ T cells; donor 4,no Compound (10b) effect
